# Data reported in PMC4245125, “Pharmacological and Behavioral Characterization of D-473, an Orally Active Triple Reuptake Inhibitor Targeting Dopamine, Serotonin and Norepinephrine Transporters” (PLoS ONE, 2014).
# pKi: −log10 of the molar value. “Also recorded” adds a separate entry of the source.
# How the values were obtained:
# [1] = target: D5 (Homo sapiens, UniProt P21918); assay: NIMH PDSP receptor binding, D5
# [2] = target: T1, 5HT6 (Homo sapiens, UniProt P50406); assay: NIMH PDSP receptor binding, 5HT6; settings: [3H]LSD, read-out: % Inhibition of Binding at 10 µM D-473
# T1 construct: purchased NIMH PDSP
# [3] = target: Alpha2C (Homo sapiens, UniProt P18825); assay: NIMH PDSP receptor binding, Alpha2C; settings: [3H]Clonidine
# [4] = target: T2, δ-opioid (Homo sapiens, UniProt P41143); assay: NIMH PDSP receptor binding, δ-opioid; settings: [3H]DADLE, read-out: % Inhibition of Binding at 10 µM D-473
# T2 construct: purchased NIMH PDSP
# [5] = target: T3, H2 (Homo sapiens, UniProt P25021); assay: NIMH PDSP receptor binding, H2; settings: [3H]Tiotodine
# T3 construct: NIMH PDSP
# [6] = target: T4, M2 (Homo sapiens, UniProt P08172); assay: biochemical; settings: read-out: % Inhibition of Binding at 10 µM D-473
# T4 construct: purchased NIMH PDSP
# [7] = target: T5, M5 (Homo sapiens, UniProt P08912); assay: biochemical; settings: read-out: % Inhibition of Binding at 10 µM D-473
# T5 construct: purchased NIMH PDSP
# [8] = system: PBR; assay: NIMH PDSP receptor binding, PBR
# [9] = system: duration of immobility; assay: Forced swim test in rats after oral administration; assay type: in vivo; settings: rat, sub-chronic
# Protocol: The experiment was carried out in the same way as described in our previous publications according to the Porsolt protocol, [30]. The subjects were male Sprague Dawley rats (Harlam Sprague Dawley Inc., Indianapolis, Ind., USA) weighing 200–225 g housed in cages for at least 1 week prior to testing. Animals were maintained in a temperature-controlled environment under a 12 hr light-dark cycle. All subjects were naive and were used only once. Rats were transported to the testing room at least for one hour prior to testing for acclimatization and adaptation purposes. Experimental sessions were conducted between 9 AM to 2 PM daily. Animals were assigned randomly and were placed individually in a glass cylinder (24.5 cm×35.5 cm) filled with water at room temperature to a depth of 22 cm. All the test sessions were recorded by video cameras. The water was changed in the beginning of each session and the temperature was maintained constant at 24–25°C. Rats were judged to be immobile if they made only minimal movement, barely keeping afloat. The test procedure consisted of a pretest and test session separated by 24 h. During the pretest period, rats were placed in the swim chamber for 15 min. Followed by the initial swim exposure; rats were patted dry and were transferred to the individual cages. Drugs or vehicle were then orally administered (p.o) 15 min after the initial swim exposure and were then transported to their home cages. On the following day the rats were brought back to the testing room at least 1 h before the beginning of test session. Rats were administered either drugs or vehicle 1 h before the swim test. Each rat underwent a 5-min swim session, which was videotaped and scored later. In the case of imipramine, pretreatment time was 30 min. Drug solutions were prepared freshly on the test days. Compound D-473 was dissolved in 3% beta-hydroxy propyl cyclodextrin solution. All drug and vehicle preparations were administered orally. D-473 was administered at a dose of 5, 10, 25 and 50 mg/kg and the volume was maintained at 1.2 mL/rat. Drug or vehicle was administered 1 h prior to testing for forced swimming. An individual, blinded to the treatment, scored the videotapes for immobility. Immobility scores were analyzed by one way ANOVA test. Behavioral results were analyzed with Prism 6.0 (GraphPad Software, San Diego, CA). The immobility time for forced swimming test was analyzed by one-way ANOVA (analysis of variance) followed by post Dunnett’s multiple comparison test vs. vehicle. Data for vehicle was used as negative control, respectively. Statistical significance was assumed in analysis if p≤0.05.
# [10] = 10 µM, read-out: % Inhibition of Binding at 10 µM D-473
# [11] = secondary assay, read-out: Ki for D-473
# T3 sequence (P25021 whole entry): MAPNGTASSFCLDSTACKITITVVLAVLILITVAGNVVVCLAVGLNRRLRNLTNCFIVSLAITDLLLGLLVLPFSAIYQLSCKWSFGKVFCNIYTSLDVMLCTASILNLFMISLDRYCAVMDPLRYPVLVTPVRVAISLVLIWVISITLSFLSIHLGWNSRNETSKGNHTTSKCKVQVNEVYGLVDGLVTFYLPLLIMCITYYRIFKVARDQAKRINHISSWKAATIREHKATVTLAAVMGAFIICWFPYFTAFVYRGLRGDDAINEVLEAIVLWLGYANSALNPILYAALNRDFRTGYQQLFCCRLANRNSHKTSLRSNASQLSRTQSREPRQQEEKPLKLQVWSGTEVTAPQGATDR
# Chain of Alpha2C (P18825 whole entry): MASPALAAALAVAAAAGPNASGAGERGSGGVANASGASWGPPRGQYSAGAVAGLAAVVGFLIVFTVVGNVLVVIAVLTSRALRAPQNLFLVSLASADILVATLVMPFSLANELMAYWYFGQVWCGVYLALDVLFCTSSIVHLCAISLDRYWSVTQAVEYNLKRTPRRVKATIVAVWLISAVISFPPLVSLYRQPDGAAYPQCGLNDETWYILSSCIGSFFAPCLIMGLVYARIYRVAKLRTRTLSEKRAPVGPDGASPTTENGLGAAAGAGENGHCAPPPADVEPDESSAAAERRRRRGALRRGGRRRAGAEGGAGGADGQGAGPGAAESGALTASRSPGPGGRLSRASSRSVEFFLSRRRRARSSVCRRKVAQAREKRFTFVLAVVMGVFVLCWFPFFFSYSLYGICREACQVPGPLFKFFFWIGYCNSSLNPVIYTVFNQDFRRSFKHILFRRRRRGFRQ
# Chain of D5 (P21918 whole entry): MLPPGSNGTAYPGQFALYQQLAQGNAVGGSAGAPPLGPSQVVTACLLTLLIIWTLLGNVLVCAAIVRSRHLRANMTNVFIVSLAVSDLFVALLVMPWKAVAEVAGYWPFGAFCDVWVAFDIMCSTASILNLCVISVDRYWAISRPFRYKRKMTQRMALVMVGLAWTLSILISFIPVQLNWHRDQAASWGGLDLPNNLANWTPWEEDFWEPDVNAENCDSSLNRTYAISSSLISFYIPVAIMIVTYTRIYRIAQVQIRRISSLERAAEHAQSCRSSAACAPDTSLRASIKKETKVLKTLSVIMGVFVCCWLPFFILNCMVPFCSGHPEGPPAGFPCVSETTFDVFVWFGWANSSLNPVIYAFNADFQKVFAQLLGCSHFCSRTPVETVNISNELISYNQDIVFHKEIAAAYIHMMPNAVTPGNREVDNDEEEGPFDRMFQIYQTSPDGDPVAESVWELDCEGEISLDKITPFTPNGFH
# T4 sequence (P08172 whole entry): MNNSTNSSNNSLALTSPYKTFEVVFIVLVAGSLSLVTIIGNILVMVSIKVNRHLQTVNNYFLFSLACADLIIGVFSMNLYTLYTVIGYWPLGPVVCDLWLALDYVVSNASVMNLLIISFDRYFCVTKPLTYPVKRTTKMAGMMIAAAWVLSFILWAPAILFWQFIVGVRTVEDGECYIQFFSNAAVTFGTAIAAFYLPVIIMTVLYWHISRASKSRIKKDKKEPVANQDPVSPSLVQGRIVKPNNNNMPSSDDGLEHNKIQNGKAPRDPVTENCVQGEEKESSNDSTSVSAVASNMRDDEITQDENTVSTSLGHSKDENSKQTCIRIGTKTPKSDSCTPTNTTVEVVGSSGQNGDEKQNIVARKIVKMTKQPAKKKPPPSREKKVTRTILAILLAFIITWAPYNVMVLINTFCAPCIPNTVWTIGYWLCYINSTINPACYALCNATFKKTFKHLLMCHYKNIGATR
# T5 sequence (P08912 whole entry): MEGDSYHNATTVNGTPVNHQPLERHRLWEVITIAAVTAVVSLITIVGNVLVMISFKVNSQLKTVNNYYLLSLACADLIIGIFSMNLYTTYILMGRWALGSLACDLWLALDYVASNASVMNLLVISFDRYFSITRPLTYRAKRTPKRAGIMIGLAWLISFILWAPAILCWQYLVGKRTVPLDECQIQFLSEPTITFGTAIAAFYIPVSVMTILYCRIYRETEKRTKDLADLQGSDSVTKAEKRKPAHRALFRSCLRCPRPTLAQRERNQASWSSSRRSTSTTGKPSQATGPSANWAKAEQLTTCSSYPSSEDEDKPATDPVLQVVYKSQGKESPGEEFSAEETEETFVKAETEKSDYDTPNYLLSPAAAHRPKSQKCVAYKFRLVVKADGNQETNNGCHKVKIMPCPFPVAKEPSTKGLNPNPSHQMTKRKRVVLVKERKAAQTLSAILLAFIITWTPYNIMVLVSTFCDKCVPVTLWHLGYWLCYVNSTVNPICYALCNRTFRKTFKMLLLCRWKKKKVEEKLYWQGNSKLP
# T2 sequence (P41143 whole entry): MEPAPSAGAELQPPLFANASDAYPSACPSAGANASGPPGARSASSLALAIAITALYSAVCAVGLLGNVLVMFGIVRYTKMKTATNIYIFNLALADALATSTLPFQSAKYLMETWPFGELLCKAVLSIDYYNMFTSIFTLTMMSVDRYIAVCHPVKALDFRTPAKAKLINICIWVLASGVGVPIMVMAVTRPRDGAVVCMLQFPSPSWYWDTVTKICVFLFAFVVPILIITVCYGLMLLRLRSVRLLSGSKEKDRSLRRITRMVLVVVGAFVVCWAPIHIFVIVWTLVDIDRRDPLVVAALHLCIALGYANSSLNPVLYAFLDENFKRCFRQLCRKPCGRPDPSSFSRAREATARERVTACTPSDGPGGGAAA
# T1 sequence (P50406 whole entry): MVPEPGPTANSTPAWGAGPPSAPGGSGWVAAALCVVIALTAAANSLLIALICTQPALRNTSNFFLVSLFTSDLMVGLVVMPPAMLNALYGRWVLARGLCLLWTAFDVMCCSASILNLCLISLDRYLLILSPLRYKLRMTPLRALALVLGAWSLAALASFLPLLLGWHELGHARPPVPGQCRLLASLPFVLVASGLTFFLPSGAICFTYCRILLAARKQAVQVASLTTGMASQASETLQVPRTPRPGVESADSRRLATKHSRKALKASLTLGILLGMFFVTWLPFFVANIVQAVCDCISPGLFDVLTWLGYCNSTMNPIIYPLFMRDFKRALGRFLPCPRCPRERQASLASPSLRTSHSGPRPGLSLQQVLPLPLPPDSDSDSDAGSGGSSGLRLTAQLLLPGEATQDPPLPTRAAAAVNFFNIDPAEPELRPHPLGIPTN
compound,measurement,setting,value
"COc1ccc(CN[C@@H]2CO[C@H](C(c3ccc(F)cc3)c3ccc(F)cc3)C[C@H]2O)cc1 [Compound D-473, (2S,4R,5R)-2-(bis(4-fluorophenyl)methyl)-5-((4-methoxybenzyl)amino)tetrahydro-2H-pyran-4-ol]",inhibition at 10 µM,"[1]; [3H]SCH 23390, 10 µM, read-out: % Inhibition of Binding at 10 µM D-473",74.7%
same,pKi,"[1]; [3H]SCH 23390, secondary assay, read-out: Ki for D-473",5.80
same,inhibition at 10 µM,[2],-11.4%
same,inhibition at 10 µM,[3]; [10],61%
same,pKi,[3]; [11],< 5.00
same,inhibition at 10 µM,[4],42.7%
same,inhibition at 10 µM,[5]; [10],70.1%
same,pKi,[5]; [11],6.85
same,inhibition at 10 µM,[6],-9.5%
same,inhibition at 10 µM,[7],3.2%
same,% Inhibition of Binding at 10 µM D-473,[8],8.4%
same,Duration of immobility in the forced swimming test,"[9]; 5 mg/kg p.o., vs vehicle",did not produce significant reduction in immobility
same,Duration of immobility in the forced swimming test,"[9]; 10 mg/kg p.o., vs vehicle (P<0.01), 10 mg/kg","robust, statistically significant effect; also recorded: statistically significant different compared to vehicle"
same,Duration of immobility in the forced swimming test,"[9]; 25 mg/kg p.o., vs vehicle (P<0.01)",statistically significant different compared to vehicle
same,Duration of immobility in the forced swimming test,"[9]; 50 mg/kg p.o., vs vehicle (P<0.01)",statistically significant different compared to vehicle
